Assays:
firefly luciferase [1] = molecular target: T1, firefly luciferase (Photinus pyralis, UniProt P08659); assay: Combined treatment with soluble (β-cyclodextrin) and insoluble (IRC-748) neutralizers of ADBAC inhibition of firefly luciferase; type: biochemical; details: β-cyclodextrin 3,750 mg/L, resin 1 part per 3 parts
Protocol: Four dilution series were prepared from this stock solution. One series was diluted only in a phosphate buffer. Another identical series was prepared in the phosphate buffer but was pre-treated with IRC-748 chelating resin (3 parts solution treated with one part resin) prior to assaying for ATP. […] The fourth series was prepared in the same way as the third series, except that each member of the series was pre-treated with IRC-748 chelating resin (3 parts solution treated with one part resin) prior to assaying for ATP. All solutions were assayed for ATP by mixing 100 microliters of solution with 100 microliters of luciferase reagent and measuring the light produced in a Kikkoman luminometer.
The experiment described in Example 5 compares the ability of a soluble agent (β-cyclodextrin) and an insoluble agent (chelating resin, IRC-748) and their combination to neutralize the inhibition of the bioluminescent reaction catalyzed by firefly luciferase.
A concentrate of cyclodextrin was added to the ATP solutions in some of the tests to maintain concentration of 3,750 mg/L through the dilution series.

luciferase [2] = molecular target: T2, luciferase (Photinus pyralis, UniProt P08659); assay: Luciferase activity in ATP standard spiked with ADBAC after treatment with various resins; type: biochemical, firefly; details: 10 ng/mL ATP
T2 sequence (P08659 whole entry): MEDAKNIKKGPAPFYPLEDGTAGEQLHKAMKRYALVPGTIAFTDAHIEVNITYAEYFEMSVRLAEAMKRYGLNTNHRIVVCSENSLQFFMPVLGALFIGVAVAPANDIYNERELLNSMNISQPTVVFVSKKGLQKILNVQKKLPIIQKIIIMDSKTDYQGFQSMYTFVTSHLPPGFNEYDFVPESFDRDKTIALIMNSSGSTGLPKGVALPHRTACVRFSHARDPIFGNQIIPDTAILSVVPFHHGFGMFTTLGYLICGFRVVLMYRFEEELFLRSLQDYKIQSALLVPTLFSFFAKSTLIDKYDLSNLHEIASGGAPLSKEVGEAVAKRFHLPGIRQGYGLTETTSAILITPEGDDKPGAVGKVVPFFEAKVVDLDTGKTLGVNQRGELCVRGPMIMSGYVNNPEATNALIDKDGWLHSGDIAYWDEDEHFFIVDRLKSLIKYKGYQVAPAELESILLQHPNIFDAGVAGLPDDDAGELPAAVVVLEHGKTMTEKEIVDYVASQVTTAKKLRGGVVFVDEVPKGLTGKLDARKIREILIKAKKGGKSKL
Protocol: The experiment was conducted in the same format as described for the first experiment by testing an ATP standard solution spiked with ADBAC. The dilution required to remove inhibition following treatment with an ion-exchange resin was the same as the test condition in which no resin treatment was applied. In contrast, a ¼ fold dilution removed almost all of the inhibition in the solution that had been pre-treated with the chelating resin. Again, the luciferase activity in an undiluted solution treated with the chelating resin provided a response many times greater than untreated solution or solution treated with ion exchange resins.
It should be noted that Table 4 is constructed from results of 2 different experiments. In order to facilitate comparison, the results are expressed as enzyme activity instead of instrument reading. Luciferase activity was calculated by dividing the RLU of each test condition by the RLU of an uninhibited reaction and expressing the results as a percentage.

firefly luciferase [3] = molecular target: T1, firefly luciferase; assay: Firefly luciferase assay of ATP standard solution containing ADBAC, with and without chelating resin pre-treatment; type: biochemical; details: phosphate buffer ATP solution containing 1000 mg/L ADBAC
Protocol: The light produced in this reaction was measured in a luminometer (Kikkoman C-100 Lumitester). Several dilutions of this ATP solution were also prepared in phosphate buffer and tested. In addition, a 3 mL portion of this solution was mixed with 1 mL of a chelating resin (IRC748, Rohm and Haas Company) and similarly diluted in phosphate buffer, then assayed for ATP.

firefly luciferase [4] = molecular target: T1, firefly luciferase; assay: Firefly luciferase assay for ATP in ADBAC extract of wastewater effluent, with and without chelating resin; type: biochemical
Protocol: The ATP released by this process was measured in a Kikkoman luminometer by mixing 100 microliters of the mixture and combining it with 100 microliters of a luciferase assay mixture. Several dilutions of this ATP extract were also prepared in phosphate buffer and tested. In addition, a 3 mL portion of the ATP extract was mixed with 1 mL of a chelating resin (IRC748, Rohm and Haas Company) and similarly diluted in phosphate buffer, then assayed for ATP.
Further dilutions were made in a phosphate buffer. The chelating resin was IRC-748. The resin treatment consisted of mixing 1 mL of resin with 3 mL of extract, then allowing the resin beads to settle before ATP analysis.

luciferase [5] = molecular target: T2, luciferase; assay: Luciferase assay for ATP in ADBAC extract of wastewater effluent (different date), 2 mL resin or two 1 mL portions; type: biochemical, firefly; details: no extract pre-treatment
Protocol: Further dilutions were made in a phosphate buffer. The chelating resin was IRC-748. The resin treatment consisted of mixing 2 mL of resin with 3 mL of extract, then allowing the resin beads to settle before ATP analysis. In a variation of this analysis, 3 mL of sample were treated with 1 mL of resin and the supernatant of this treatment was treated to a second 1 mL portion of resin prior to ATP analysis.

T1 sequence (P08659 whole entry): as above

Question: What does the source list for OC[C@H]1O[C@@H]2O[C@H]3[C@H](O)[C@@H](O)[C@@H](O[C@H]4[C@H](O)[C@@H](O)[C@@H](O[C@H]5[C@H](O)[C@@H](O)[C@@H](O[C@H]6[C@H](O)[C@@H](O)[C@@H](O[C@H]7[C@H](O)[C@@H](O)[C@@H](O[C@H]8[C@H](O)[C@@H](O)[C@@H](O[C@H]1[C@H](O)[C@H]2O)O[C@@H]8CO)O[C@@H]7CO)O[C@@H]6CO)O[C@@H]5CO)O[C@@H]4CO)O[C@@H]3CO [β-cyclodextrin]?
Answer: RLU (firefly luciferase [1]; dilution 1/16 of 7200 mg/L ADBAC, 1 ng ATP per mL stock): 606 RLU; RLU (firefly luciferase [1]; dilution ¼ of 7200 mg/L ADBAC, 1 ng ATP per mL stock): 96 RLU; RLU (firefly luciferase [1]; dilution ½ of 7200 mg/L ADBAC, 1 ng ATP per mL stock (3600 mg/L ADBAC, 0.5 ng/mL ATP)): 3 RLU; RLU (firefly luciferase [1]; dilution ⅛ of 7200 mg/L ADBAC, 1 ng ATP per mL stock): 1227 RLU

Question: How did the “Luciferase Activity (% of activity in the absence of ADBAC)” value (luciferase [2]; dilution 1/16, 1000 mg/L ADBAC stock in phosphate buffer) turn out when “alkyl dimethybenzyl ammonium chloride [ADBAC]” was run?
Answer: The value was 100%.

Question: What about the “Luciferase Activity (% of activity in the absence of ADBAC)” value (luciferase [2]; dilution None, 1000 mg/L ADBAC in phosphate buffer) of the same compound?
Answer: The value was 0.01%.

Question: And the “Luciferase Activity (% of activity in the absence of ADBAC)” value (luciferase [2]; dilution ¼, 1000 mg/L ADBAC stock in phosphate buffer)?
Answer: Its value is 33%.

Question: And the “Luciferase Activity (% of activity in the absence of ADBAC)” value (luciferase [2]; dilution ½, 1000 mg/L ADBAC stock in phosphate buffer)?
Answer: The value was 6.7%.

Question: What about the “Luciferase Activity (% of activity in the absence of ADBAC)” value (luciferase [2]; dilution ⅛, 1000 mg/L ADBAC stock in phosphate buffer) of the same compound?
Answer: The value was 100%.

Question: What about the “dilution factor needed to overcome luciferase inhibition” value (firefly luciferase [3]) of the same compound?
Answer: Its value is 8.

Question: What about the RLU (firefly luciferase [4]; dilution of ADBAC (1000 mg/L) in ATP extract 1/16, resin 1 mL per 3 mL extract) of the same compound?
Answer: Its RLU is 4,628 RLU.

Question: What about the RLU (firefly luciferase [4]; dilution of ADBAC (1000 mg/L) in ATP extract 1/32, resin 1 mL per 3 mL extract) of the same compound?
Answer: Its RLU is 2,401 RLU.

Question: And the RLU (firefly luciferase [4]; dilution of ADBAC (1000 mg/L) in ATP extract ¼, resin 1 mL per 3 mL extract)?
Answer: The RLU was 4,658 RLU.

Question: What about the RLU (firefly luciferase [4]; dilution of ADBAC (1000 mg/L) in ATP extract ½, resin 1 mL per 3 mL extract) of the same compound?
Answer: The RLU was 1,489 RLU.

Question: And the RLU (luciferase [5]; dilution of ADBAC in ATP extract 1/16)?
Answer: The RLU was 3100 RLU.

Question: What about the RLU (luciferase [5]; dilution of ADBAC in ATP extract 1/32) of the same compound?
Answer: The RLU was 1551 RLU.

Question: And the RLU (luciferase [5]; dilution of ADBAC in ATP extract ¼)?
Answer: The RLU was 7,310 RLU.

Question: What about the RLU (luciferase [5]; dilution of ADBAC in ATP extract ½) of the same compound?
Answer: Its RLU is 209 RLU.

Question: What about the RLU (luciferase [5]; dilution of ADBAC in ATP extract ⅛) of the same compound?
Answer: Its RLU is 6064 RLU.
